Columns and labels:
[1] = test system: GT1-7 cells (co-express mPRα and GABAARs), β3 S408/9 phosphorylation; assay: Immunoblot of β3 S408/9 phosphorylation in GT1-7 cells; assay type: cell-based; details: 100 nM, 15 min; n=6
Protocol: GT1-7 cells that co-express mPRα and GABAARs were used to measure the level of phosphorylation at S408/9 position of β3 subunit. Quantitative PCR analysis indicated the enrichment of the mPRα mRNA in GT1-7 cells (FIG. 15A upper, figure taken from Thomas and Pang 2012). Expression of mPRα was confirmed using western blotting. 10 and 15 μg of SDS-soluble extracts from GT1-7 cells were immunoblotted with an mPRα specific antibody (FIG. 15A lower).
GT1-7 cells were treated with 100 nM AllO or P4 for 15 min and immunoblotted with antibodies specifically recognizing β3, actin, and […] β3 subunit (pS408/9). The ratio of pS408/9 β3 subunit immunoreactivity were then normalized to levels seen in vehicle treated to controls, n=6.

[2] = test system: GABA-evoked currents in GT1-7 cells; assay: Patch-clamp of GABA-induced currents in GT1-7 cells, compound in the pipette electrolyte; assay type: cell-based; details: 100 nM in electrolyte, GABA EC20, 20 min time course
Protocol: Patch-clamp recordings were made from GT1-7 cells. The magnitude of the GABA-induced currents (IGABA) at EC20 agonists concentration were then measured, in the presence of control electrolyte or that supplemented with 100 nM ALLO, or 100 nM ORG OD 02-0 over a time course of 20 min.

[3] = test system: sIPSCs in dentate gyms granule cells (DGGCs); assay: sIPSCs in DGGCs after 15 min exposure and >30 min wash; assay type: cell-based, mice
Protocol: For tonic current measurements, an all-points histogram was plotted for a 10 s period before and during 100 μM picrotoxin application, once the response reached a plateau level. Recordings with unstable baselines were discarded. Fitting the histogram with a Gaussian distribution gave the mean baseline current amplitude and the difference between the amplitudes before and during picrotoxin was considered to be the tonic current. The negative section of the all-points histogram which corresponds to the inward IPSCs was not fitted with a Gaussian distribution (Kretschmannova et al., 2013; Nusser and Mody, 2002). Series resistance and whole-cell capacitance were continually monitored and compensated throughout the course of the experiment. Recordings were eliminated from data analysis if series resistance increased by >20%. Spontaneous inhibitory post-synaptic currents (sIPSCs) were analyzed using the mini-analysis software (version 5.6.4; Synaptosoft, Decatur, Ga.). Minimum threshold detection was set to 3 times the value of baseline noise signal. […] Only recordings with a minimum of 200 events fitting these criteria were analyzed. sIPSCs amplitude, and frequency from each experimental condition was pooled and expressed as mean±SEM. To measure sIPSC decay, 100 consecutive events were averaged and the decay was fitted to a double exponential and the weighted decay constant (tw) was determined. […]

[4] = test system: GABAA receptor α4 subunit S443 phosphorylation; assay: Immunoblot of α4 S443 phosphorylation in hippocampal slices; assay type: cell-based, mice; details: 100 SGE-516 for 5 min
Protocol: Treatment of hippocampal slices with SGE-516 increased the phosphorylation of S408/9 measured using pS408/9 antibodies. To produce antibodies specific for phosphorylated S443, rabbits were injected with a synthetic peptide corresponding to residues […] of the murine α4 subunit in which the serine residue corresponding to S443 was chemically phosphorylated; […]. Hippocampal slices were treated with vehicle (Con), or SGE-516 for 20 min. Slices were immunoblotted with pS408/9, β3, or actin antibodies. The ratio of pS408/9/β3 immunoreactivity was then normalized to control slices (100%=the line).
Affinity purified pS443 was used to immunoblot varying concentrations of the immunizing phosphor-peptide (PP). pS443 was used to immunoblot extracts of hippocampal slices treated without preadsorption (0), preadsorbed with the dephosphorylated (DP), or phosphorylated antigen (PP). […] Moreover, the detection of this band was blocked by the phospho- but not the dephospho-antigen (FIG. 7B).
Hippocampal slices were treated with vehicle (Con) or 100 SGE-516 for 5 min and then immunoblotted with pS443 and α4 antibodies as indicated. pS443 immunoreactivity in hippocampal slices was increased by exposure to SGE-516, while total α4 levels were unaffected (FIG. 7C).

[5] = test system: plasma membrane GABAARs containing the α4 and β3 subunits (S408/9A mutant); assay: Biotinylation, surface/total GABAAR subunits in hippocampal slices of S408/9A mice; assay type: cell-based; details: 100 nM, 20 min
Protocol: Consistent with the examples above, hippocampal slices from WT and S408/9A mice were treated for 20 min with 100 nM SGE-516 or vehicle (Con) and subjected to biotinylation followed by immunoblotting with β3 and α4 subunit antibodies. The ratio of surface/total (S/T) immunoreactivity was then normalized to levels seen in control (100%).

[6] = test system: phosphorylation of S443 (α4) and S408/9 (β3); assay: Phosphorylation of GABAAR subunits in brain after IP injection; assay type: in vivo, mice; details: 5 mg/kg IP, 30 min after treatment
Protocol: C57/B16 mice injected with SGE-516 (5 mg/kg IP), or vehicle. 30 min after the treatment mice were sacrificed by microwave irradiation. SDS-soluble hippocampal extracts were then immunoblotted with pS443, α4, pS408/9, or β3 subunit antibodies.

Structure (SMILES) | S408/9 phosphorylation (pS408/9/β3) in GT1-7 cells [1] | GABA-evoked currents (IGABA) over time [2] | enhancement of sIPSC amplitude with GFX ([3]; 100 nM SGE-516 plus GFX) | sIPSC amplitude after exposure and wash ([3]; 100 nM, 15 min, washed >30 min) | pS443 immunoreactivity [4] | total α4 levels [4] | increase of plasma membrane levels of GABAARs containing α4 and β3 subunits [5] | phosphorylation of S443 and S408/9 in the brains [6]
CC(=O)[C@H]1CC[C@H]2[C@@H]3CC[C@H]4C[C@H](O)CC[C@]4(C)[C@H]3CC[C@]12C [ALLO, Allopregnanolone] | increase | sustained increases |  |  |  |  |  | 
C[C@@]1(O)CC[C@H]2[C@H](CC[C@@H]3[C@@H]2CC[C@]2(C)[C@@H](C(=O)Cn4nccn4)CC[C@@H]32)C1 [SGE-516] |  |  | significantly reduced | significantly enhanced | increased | unaffected | not seen | increased

Reference: patent US20200341000A1, “METHOD OF SCREENING COMPOUNDS FOR TREATING CNS DISORDERS” (SAGE THERAPEUTICS, INC., priority 2017, published 2020)
